# Reference: paper PMC8113213, “Physiologically based kinetic modelling based prediction of in vivo rat and human acetylcholinesterase (AChE) inhibition upon exposure to diazinon” (Archives of Toxicology, 2021)
# Marks after values point to notes of the source that are not given here.
# Tested on: RBC AChE
# Test: TEF-coded PBK model-based reverse dosimetry, predicted in vivo RBC AChE inhibition, rat
# Settings: for Predicted BMDL10 for rat pups: adult rat predicted BMDL10 corrected by factor 2 (Padilla et al. 2004)
# From the text: The PBK model for DZN was developed based on the model from Poet et al. ([2004]) with some modifications for both rat and human. The model contains a submodel for the metabolite DZO and was defined to include compartments for rapidly perfused tissue, slowly perfused tissue, liver, fat and blood for both the parent compound DZN and its metabolite DZO. The model also contains a compartment to describe the urinary elimination of the metabolites IMHP and DAP (sum of DEP and DETP). In the currently developed model, oral exposure was included since we aimed at defining a POD for risk assessment of exposure via food and drinking water, and intravenous (IV) exposure was included for model evaluation. The fractional absorption (fa) was set equal to literature reported values, being 0.8 in rat (Poet et al. [2004]) and 0.66 in human (Garfitt et al. [2002]) and applied to the overall dose. The absorption of DZN from the stomach into the liver was described using a two-compartment gastrointestinal tract model as reported by Poet et al. ([2004]), with a first-order rate constant for absorption of DZN from the stomach into the liver (KaS) of 0.1 /h for rat and 0.32/h for human (Poet et al. [2004]), a first-order rate constant for transfer of DZN from the stomach into the intestine (KsI) of 0.48/h for both rat and human, a first-order rate constant for absorption DZN from the intestine into the liver (KaI) of 0.59/h for both rat and human, (Poet et al. [2004]), and Ke values for the elimination of IMHP or DAP (sum of DEP and DETP) into the urine amounting to Ke IMHP = 0.29/h, Ke DEP = 0.29 /h and Ke DETP = 0.29/h for rat (Poet et al. [2004]), and Ke IMHP = 12/h, Ke DEP = 12 /h and Ke DETP = 12/h for human (Garfitt et al. [2002]; Poet et al. [2004]).
# The physiological parameters for rat and human were obtained from Brown et al. ([1997]) as well as Gearhart et al. ([1990]), and are summarised in Table 1. […] The kinetic parameters for biotransformation of DZN in rat and human were obtained by conducting in vitro liver microsomal/plasma incubations as described in the section “In vitro metabolic incubations for deriving kinetic parameters”. […] The first-pass metabolism of DZN by the intestine was not taken into account in the current model because the metabolic conversion in the intestine derived from the conversion in incubations with intestinal microsomes upon scaling to the whole organ, appeared less than 5% of that obtained in a similar way for the liver (data not shown). […] The Km values determined in vitro were assumed to be equal to in vivo Km values. […]
smiles,measurement,setting,value
"CCOP(=S)(OCC)Oc1cc(C)nc(C(C)C)n1 [DZN, O,O-diethyl O-2-isopropyl-6-methylpyrimidin-4-yl phosphorothioate]",corrected POD (rat pups) higher than POD used by the EPA,,2.1 fold
same,predicted rat BMDL10 higher than reported BMDL10 for inhibition of RBC AChE,,2.6 fold
same,Predicted BMDL10 for rat pups,,6.3 mg/kg bw
same,Predicted BMDL10 for rat pups,listed as Diazinon,6.3^a mg/kg bw
